Data: patent publication US20240091172A1, “DRUG FOR ANTAGONIZING REPLICATION OF PORCINE REPRODUCTIVE AND RESPIRATORY SYNDROME VIRUS AND APPLICATION THEREOF” (NANJING AGRICULTURAL UNIVERSITY, priority 2019, published 2024)

Experiments:
PRRSV [1] = experiment: Anti-PRRSV activity of xanthohumol derivatives on Marc-145; type: cell-based, porcine reproductive and respiratory syndrome virus
Marc-145 cells = experiment: Cytotoxicity to Marc-145 cells (CCK8, CC50); type: cell-based
Experimental: (§1) Cell viability was detected with the enhanced CCK8 kit. The concentration (CC50) at which Xn was cytotoxic to 50% of the cells was calculated using GraphPad Prism 7.0 software. DMSO was used as a negative control.
(§2) Further, the inhibitory efficiency of Xn on PRRSV in Marc145 cells was detected by indirect immunofluorescence. […] To further determine the dose range of Xn with the anti-PRRSV activity, Marc-145 cells were treated with 5 μM, 10 μM, and 15 μM Xn respectively, and then infected with PRRSV (0.01 MOI).

PRRSV [2] = experiment: Natural product drug library screening, PRRSV infection of Marc-145 cells; type: cell-based, porcine reproductive and respiratory syndrome virus; conditions: for inhibitory effects on PRRSV: second round hits
Experimental: Marc-145 cells were treated with 10 μM of natural products and then infected with PRRSV. In the first round of screening, 24 compounds (6.21%) had no obvious cytotoxicity to Marc-145 cells and could reduce PRRSV-induced CPE by 50% (FIG. 1A).

[3] = Cytotoxicity to Marc-145 cells (CCK8, CC50); type: cell-based; conditions: African green monkey, Marc-145 cells; Marc145 cells, CCK8 cytotoxicity assay
Experimental: as §1, §2

PRRSV [4] = experiment: IC50 against PRRSV in Marc145 cells by indirect immunofluorescence; type: cell-based; conditions: Porcine reproductive and respiratory syndrome virus
Experimental: (§3) Xn of different concentrations was added to a PAMs medium (1-30 μM), and a DMSO negative control group was set up. Cells were inoculated with PRRSV (0.01 MOI) and incubated at 37° C. for 30 h, and the cell supernatant was pipetted and discarded. The cells were fixed with 4% (volume ratio) paraformaldehyde for 15 min, permeabilized with 0.1% (volume ratio) Triton X-100 for 30 min, and washed 3 times with PBS for 3 min each time. A PRRSV N protein monoclonal antibody (2H7) at a dilution of 1:1000 was added, and the cells were incubated at 37° C. for 1 h, and washed 3 times with PBST for 3 min each time. Alexa Fluor 594 goat anti-mouse IgG at a dilution of 1:1000 was added, and the cells were incubated at 37° C. for 45 min. The nuclei were stained with DAPI for 10 min at room temperature. Three photos were recorded randomly with a Nikon A1 confocal microscope. The fluorescence intensity was measured by ImageJ software. Finally, the 50% inhibitory concentration (IC50) of Xn against PRRSV was calculated by GraphPad Prism 7.0 software, and the results were recorded.
as §2

PRRSV [5] = experiment: IC50 against PRRSV in PAMs by immunofluorescence; type: cell-based; conditions: Porcine reproductive and respiratory syndrome virus; PAMs cells
Experimental: as §3

[6] = Cytotoxicity (CC50) in PAMs cells; type: cell-based, porcine; conditions: pig
[7] = system: IL-1β, IL-6, IL-8 and TNF-α mRNA; experiment: PRRSV- or LPS-induced inflammatory reaction in PAM cells (qRT-PCR); type: cell-based, porcine
Experimental: (§4) Cellular RNAs were extracted following the operation instructions of an OMEGA RNA virus extraction kit. […] Relative fluorescence quantification was performed after reverse transcription, and the primer sequences used were as follows:
(§5) According to the method of 2-ΔΔCt, the relative content of mRNA of each gene in a sample was calculated with a CT value.
(§6) Marc-145 cells and PAM cells were inoculated with 0.1 MOI PRRSV and incubated at 37° C. for 1 h. The nutrient solution was replaced with DMEM-2% FBS containing Xn (or DMSO), and 24 h post infection, cellular RNAs were extracted. A positive control group was set up: Marc-145 cells and PAMs were treated with 10 μg/mL LPS (or DMEM) for 1 h; the cell surface was washed 3 times with PBS; 2% FBS-DMEM containing Xn (or DMSO) was added; and after 6 h, the cells were collected, RNAs were extracted, and the mRNA levels of IL-1β, IL-6, IL-8 and TNF-α were detected by qRT-PCR. The results are shown in FIG. 6 (Marc-145) and FIG. 7 (PAM cells).

[8] = system: IL-1β, IL-6, IL-8 and TNF-α mRNA; experiment: PRRSV- or LPS-induced inflammatory reaction in Marc-145 cells (qRT-PCR); type: cell-based
Experimental: as §4, §5, §6

PRRSV [9] = experiment: PRRSV replication in PAM cells (N protein, ORF7 mRNA, titer, different strains); type: cell-based, porcine reproductive and respiratory syndrome virus
Experimental: (§7) Marc-145 cells were cultured in a 96-well plate. When the cell confluence reached 70%, a nutrient solution was pipetted and discarded, and the cell surface was washed 3 times with PBS. Ten-fold serially diluted PRRSV was added to the cells and the cells were incubated at 37° C. for 1 h. The medium was replaced with fresh 2% FBS-DMEM. Virus titers were determined 5 days post-inoculation (dpi) using end-point dilution analysis. The 50% cell infectious dose (TCID50) was calculated by the Reed-Muench method.
as §4
The results are shown in FIGS. 4A-D. In PAM, Xn could inhibit the replication of different genetic subtypes of PRRSV strains in the viral ORF7 gene and protein levels, and reduce the viral infection titer.

PRRSV [10] = experiment: Stage experiment of drug (pre-, co-, post-treatment) in PAMs; type: cell-based, porcine reproductive and respiratory syndrome virus; conditions: 24 hpi
Experimental: Xn treatment time and PRRSV infection time are shown on the timeline in FIG. 5A. PAMs were inoculated into a 24-well plate, and after complete sedimentation, the time was set as −1 h. 10 μM Xn was added to a pretreatment group (Pre) at −1 h; and at 0 h; cells were inoculated 0.1 moi PRRSV and incubated at 37° C. for 1 h; the virus-containing cell culture was replaced with 2% FBS-DMEM; and the cells were cultured at 37° C. for 24 h. Xn was added to the cells in a co-treatment group (Co) at 0 h; the cells were inoculated with 0.1 moi PRRSV, and incubated at 37° C. for 1 h; the virus-containing cell culture was replaced with 2% FBS-DMEM; and the cells were cultured at 37° C. for 24 h. A post-treatment group (Post) was inoculated with 0.1 moi PRRSV at 0 h; the culture was discarded at 1 h and replaced with 2% FBS-DMEM containing 10 μM Xn; and the cells were cultured at 37° C. for 24 h.
PAMs were treated with Xn before, during and after PRRSV infection (FIG. 5A). Cell samples were collected at 24 hpi for detection of PRRSV N protein and PRRSV ORF7 mRNA by Western blot and qRT-PCR respectively, and the cell supernatant was collected for virus titer determination.

PRRSV [11] = experiment: PRRSV replication in Marc-145 cells (TCID50, ORF7 mRNA, CPE/IFA, Western blot); type: cell-based, porcine reproductive and respiratory syndrome virus
Experimental: as §7, §4, §5, §2

PRRSV BB0907 strain = experiment: Piglet treatment experiment after PRRSV infection; type: in vivo, piglets; conditions: for virus level in the serum vs virus-infected positive control group: 4-14 dpi
[12] = PAM cells, dose-dependent manner
[13] = Marc-145, 5, 10, 15 μM Xn, 0.01 MOI, 24, 36, 48 hpi

COc1cc(OC)c(C(=O)/C=C/c2ccc(O)cc2)c(OC)c1 [Xn-2]
anti-PRRSV activity on Marc-145 (PRRSV [1]; 0-50 uM): inhibitory effects

COc1cc(O)cc(O)c1C(=O)/C=C/c1cccc([N+](=O)[O-])c1 [Xn-5]
cytotoxicity (Marc-145 cells; low concentrations): highly cytotoxic | antiviral ability (PRRSV [1]; low concentrations): did not have antiviral ability

Oc1c(Cl)cc(Cl)c2cccnc12 [chloroxine, reference compound]
inhibitory effects on PRRSV (PRRSV [2]): dose-dependent inhibitory effects

COc1cc(/C=C/C(=O)CC(=O)/C=C/c2ccc(O)c(OC)c2)ccc1O [curcumin]
inhibitory effects on PRRSV (PRRSV [2]): dose-dependent inhibitory effects

COc1cc(O)c(CC=C(C)C)c(O)c1C(=O)/C=C/c1ccc(O)cc1 [Xn, xanthohumol]
CC50 at 48 h [3]: 62.5 µM | CC50, comparison among the 5 screened compounds (Marc-145 cells; Marc-145 cells): highest | IC50 (PRRSV [4]): 2.37 µM | IC50 (PRRSV [5]): 7.05 µM | CC50 [6]: 42.6 µM | mRNA expressions of IL-1β, IL-6, IL-8 and TNF-α induced by LPS ([7]; 10 μg/mL LPS, 6 h, dose-dependent): effectively reduce | mRNA expressions of IL-1β, IL-6, IL-8 and TNF-α induced by PRRSV ([7]; 0.1 MOI PRRSV, 24 h post infection, dose-dependent): effectively reduce | intracellular inflammatory factors, Xn control treatment ([7]; Xn alone): did not cause changes | mRNA expressions of IL-1β, IL-6, IL-8 and TNF-α induced by LPS ([8]; Marc-145, 10 μg/mL LPS, 6 h, dose-dependent): effectively reduce | mRNA expressions of IL-1β, IL-6, IL-8 and TNF-α induced by PRRSV ([8]; Marc-145, 0.1 MOI PRRSV, 24 h post infection, dose-dependent): effectively reduce | intracellular inflammatory factors, Xn control treatment ([8]; Marc-145, Xn alone): did not cause changes | IC50, comparison among the 5 screened compounds (PRRSV [2]): lowest | selectivity index, comparison among the 5 screened compounds (PRRSV [2]): highest | inhibitory effects on PRRSV (PRRSV [2]): dose-dependent inhibitory effects | replication of different genetic subtypes of PRRSV strains (ORF7 gene and protein levels) (PRRSV [9]; PAM): inhibit | level of PRRSV N protein (PRRSV [9]; [12]): decreased | level of viral mRNA (PRRSV [9]; [12]): decreased | viral infection titer (PRRSV [9]; PAM, different genetic subtypes of PRRSV strains): reduce | level of PRRSV replication (N protein, ORF7 mRNA, virus titer) (PRRSV [10]; 10 μM Xn co-treatment (Co)): inhibited the virus to a lower degree | level of PRRSV replication (N protein, ORF7 mRNA, virus titer) (PRRSV [10]; 10 μM Xn post virus infection (Post)): significantly reduced | level of PRRSV replication (N protein, ORF7 mRNA, virus titer) (PRRSV [10]; 10 μM Xn pretreatment (Pre)): inhibited the virus to a lower degree | replication of the three PRRSV strains (Western blot) (PRRSV [11]; Marc-145): effectively reduce | number of infected cells (CPE and IFA) vs negative control group (PRRSV [11]; Marc-145, 48 hpi): significantly less | ORF7 mRNA level (PRRSV [11]; [13]): dose-dependent decrease | viral titers (TCID50 of PRRSV) (PRRSV [11]; [13]): dose-dependent decrease

COc1cc(O)c(C(=O)/C=C/c2ccc(O)cc2)c(OC)c1 [Xn-4]
pigs died (PRRSV BB0907 strain; 10 mg/kg intramuscular, 5 per group, death at 10 dpi): 1 | rectal temperature of the piglets (PRRSV BB0907 strain; 10 mg/kg intramuscular, 14 days post infection): increased | virus level in the serum vs virus-infected positive control group (PRRSV BB0907 strain; 10 mg/kg, P<0.05): significantly lower | lung pathological change scores vs positive control group (PRRSV BB0907 strain; 10 mg/kg, 14 dpi, P<0.05): significantly lower | clinical fever and clinical symptoms (PRRSV BB0907 strain; 20 mg/kg intramuscular, days 0-14): no clinical fever or obvious clinical symptoms | survival (PRRSV BB0907 strain; 20 mg/kg intramuscular, during the experiment): all were healthy and alive | copy number of the PRRSV genome in the nasal swabs vs positive control group (PRRSV BB0907 strain; 20 mg/kg, 4-10 dpi): significantly lower | virus level in the serum vs virus-infected positive control group (PRRSV BB0907 strain; 20 mg/kg, P<0.05): significantly lower | PRRSV viral load in the lungs vs control group (PRRSV BB0907 strain; 20 mg/kg, 14 dpi, P<0.05): significantly lower | lung pathological change scores vs positive control group (PRRSV BB0907 strain; 20 mg/kg, 14 dpi, P<0.05): significantly lower | inflammatory factors IL-1β, IL-6, IL-8 and TNF-α mRNA in the lung tissue (PRRSV BB0907 strain; 5, 10, 20 mg/kg, qRT-PCR): decreased in a dose-dependent manner | anti-PRRSV activity on Marc-145 (PRRSV [1]; 0-50 uM): inhibitory effects | anti-PRRSV effect, ranking among the three compounds (PRRSV [1]; 0-50 uM, Marc-145): best effect | concentration with an obvious antiviral effect (PRRSV [1]; Marc-145): 15 µM
